This series in a line: Solubility of pure CoQ10 in ethanol. The class given is physicochemical. How it is done: The chromatography product from Example 8 is dissolved in 200 proof ethanol to create a 9 wt-% solution at 55° C. This should create a slightly sub-saturated solution. Table VI below provides solubility data for pure CoQ10 in ethanol.

SMILES strings stand for the structures.

For the compound `COC1=C(OC)C(=O)C(C/C=C(\C)CC/C=C(\C)CC/C=C(\C)CC/C=C(\C)CC/C=C(\C)CC/C=C(\C)CC/C=C(\C)CC/C=C(\C)CC/C=C(\C)CCC=C(C)C)=C(C)C1=O` [CoQ10, 2,3 dimethoxy-5 methyl-6 decaprenyl benzoquinone], the Solubility came out at 0.38 g/100 g Solvent (30 °C), 8.99 g/100 g Solvent (50 °C) and 11.0 g/100 g Solvent (60 °C).

These data come from patent publication US20070025976A1, “Process for the purification of coenzyme Q10” (Cargill, Inc., priority 2005, published 2007).
